Source: US4217345A, “3-0-(β-D-Glucuronopyranosyl)-soyasapogenol B” (Otsuka Pharmaceutical Co., Ltd., priority 1978, dated 1980)
Several values for one entry are separate records, joined by “and”; a condition that tells them apart may be missing. Equal values may be shown once.

Legend:
[1] = tested on: Nephrotoxin-Type Nephritis; experiment: Therapeutic effect on nephrotoxin-type nephritis: proteinuria level; type: in vivo, male Wistar rats; conditions: for Proteinuria Level, Average: 3 mg/body i.p. for seven days; for Proteinuria Level: 3 mg/body i.p. once every 24 hours for seven days, individual rat, listed as Compound of Invention
Experimental: Rat nephrotoxin ("NT" for brevity) was obtained as described below.
Rat kidney cortex was homogenized with an equal quantity of physiological saline. The homogenized mixture was mixed with Freund's complete adjuvant (a product of Difco Company) in a volume ratio of 1:1. 2 ml of the resulting mixture was intramuscularly injected into a rabbit (body weight 3,100 g) to immunize the rabbit. A month and a half later, blood was taken from the heart of the rabbit and serum was obtained. The resulting serum was inactivated at 56° C. for 30 minutes, then salted out with a 40% saturated aqueous solution of ammonium sulfate, and fractionated. The γ-globulin (IgG) fraction was collected to obtain NT.
The therapeutic evaluation was carried out using male Wistar rats with a body weight of 150 to 160 g with three replications for each test compound. The test compound was intraperitoneally administered once every 24 hours for seven days. One hour after the administration of the test compound on the third day, the NT was applied. The NT was intravenously injected in an amount of 1 ml at a tail vein of each rat. Physiological saline solution was used as a control.
The proteinuria level (total amount excreted into the urine over a 24 hour period) was measured using turbidometry employing bovine serum albumin as a control by means of sulfosalicylic acid.

Heymann-Type Nephritis = experiment: Therapeutic effects on Heymann-type nephritis: proteinuria level; type: in vivo, Male Wistar rats; conditions: for Proteinuria Level: individual rat, listed as Compound of Invention
Experimental: Male Wistar rats with a body weight of 180 to 200 g were used in the test. Rat kidney cortex was extracted, and homogenized with an equal quantity by volume of a physiological saline solution. The homogenate was centrifuged at 1,500 G for 1 hour. The supernatant liquid was purified in accordance with the method of T. S. Edgington et al., Journal of Experimental Medicine, 127, 555 (1968), and mixed with Freund's complete adjuvant 37 Ra (a product of Difco Company) in a volume ratio of 0.4:1. The resulting mixture was injected intraperitoneally into isologous rats in an amount of 0.5 ml per rat. And then the same amount of its mixture was administered every 2 weeks until the proteinuria level exceeded 100 mg/day. (This period was about 6 to 8 weeks.)
Each of the test compounds was intraperitoneally administered to the rats affected with Heymann-type nephritis (with a body weight of 300 to 350 g) once a day for 7 days, and then the amount of proteinuria (mg/day) was measured in the same manner as described above. Physiological saline solution was used as a control.

mice = experiment: Acute toxicity (LD50) in mice; type: in vivo; conditions: intraperitoneal administration
Experimental: (§1) The actute toxicity (LD50 mg/kg) of the test compounds was determined on mice by intraperitoneal administration in the case of Compound A and intravenous administration in the case of Compound B.

complement = experiment: Anticomplementary activity: inhibition of hemolysis of sensitized erythrocytes (EA); type: biochemical, guinea pig; conditions: for Anticomplementary Activity (50% hemolysis inhibitory activity value): guinea pig complement serum diluted 150 times, 60 minutes
Experimental: The anticomplementary activity of the test compounds above was measured and confirmed by the testing method described in Meneki Kagaku (Immuno-Chemistry), Yuichi Yamamura et al., Ed. Asakura Shoten, Tokyo, Japan (1973) pages 830-834. Specifically, a test tube was charged with 0.5 ml of an aqueous dispersion of each of the test compounds, 0.5 ml of sensitized erythrocytes (EA) containing 1×10^8 cells/ml, 1 ml of a 5-fold diluted solution of a Veronal buffer solution containing isotonic gelatin (This 5-fold diluted solution is termed GVB^++ for brevity), and 0.5 ml of complement serum (guinea pig complement) diluted 150 times with the GVB^++. The mixture was maintained for 60 minutes. Then, 5 ml of an ice-fold physiological saline solution was added thereto and the mixture was centrifuged.

complements = conditions: cited from earlier work
plasmin = conditions: cited from earlier work
Kallikrein = conditions: cited from earlier work
thrombin = conditions: cited from earlier work
[2] = Acute toxicity (LD50) in mice; type: in vivo; conditions: mouse, in vivo, intravenous administration
Experimental: as §1

urokinase = conditions: cited from earlier work
[3] = tested on: hereditary angioneurotic edema; conditions: known complement inhibitors; cited from earlier work

CC1(C)C[C@@H](O)[C@]2(C)CC[C@]3(C)C(=CC[C@@H]4[C@@]5(C)CC[C@H](O[C@@H]6O[C@H](C(=O)O)[C@@H](O)[C@H](O)[C@H]6O)[C@@](C)(CO)[C@@H]5CC[C@]43C)[C@@H]2C1 [Compound A, 3-O-(β-D-glucuronopyranosyl)-soyasapogenol B]
Proteinuria Level, Average ([1]; Day 1, average of 3 rats (control 15)): 3.2 mg/day | Proteinuria Level ([1]; Day 1): 1.9 mg/day and 5.3 mg/day and 2.5 mg/day | Proteinuria Level, Average ([1]; Day 4, average of 3 rats (control 20)): 2.3 mg/day | Proteinuria Level ([1]; Day 4): 1.2 mg/day and 2.9 mg/day and 2.7 mg/day | Proteinuria Level, Average ([1]; Day 7, average of 3 rats (control 23)): 1.3 mg/day | Proteinuria Level ([1]; Day 7): 0.9 mg/day and 1.8 mg/day and 1.1 mg/day | Proteinuria Level, Average ([1]; Day 10, average of 3 rats (control 33)): 9.7 mg/day | Proteinuria Level ([1]; Day 10): 7 mg/day and 13 mg/day and 9 mg/day | Proteinuria Level, Average (Heymann-Type Nephritis; Before Administration, 3 mg/body i.p. group, average of 3 rats (control 129)): 123 mg/day | Proteinuria Level (Heymann-Type Nephritis; Before Administration, 3 mg/body i.p. group): 117 mg/day and 129 mg/day and 123 mg/day | Proteinuria Level, Average (Heymann-Type Nephritis; Day 1, 3 mg/body i.p. once a day for 7 days, average of 3 rats (control 116)): 112 mg/day | Proteinuria Level (Heymann-Type Nephritis; Day 1, 3 mg/body i.p. once a day for 7 days): 89 mg/day and 127 mg/day and 119 mg/day | Proteinuria Level, Average (Heymann-Type Nephritis; Day 4, 3 mg/body i.p. once a day for 7 days, average of 3 rats (control 131)): 58 mg/day | Proteinuria Level (Heymann-Type Nephritis; Day 4, 3 mg/body i.p. once a day for 7 days): 42 mg/day and 75 mg/day and 58 mg/day | Proteinuria Level, Average (Heymann-Type Nephritis; Day 7, 3 mg/body i.p. once a day for 7 days, average of 3 rats (control 122)): 28 mg/day | Proteinuria Level (Heymann-Type Nephritis; Day 7, 3 mg/body i.p. once a day for 7 days): 27 mg/day and 39 mg/day and 18 mg/day | Proteinuria Level, Average (Heymann-Type Nephritis; Day 14, 3 mg/body i.p. once a day for 7 days, average of 3 rats (control 119)): 3 mg/day | Proteinuria Level (Heymann-Type Nephritis; Day 14, 3 mg/body i.p. once a day for 7 days): 3 mg/day and 17 mg/day and 9 mg/day | Proteinuria Level, Average (Heymann-Type Nephritis; Day 21, 3 mg/body i.p. once a day for 7 days, average of 3 rats (control 109)): 9 mg/day | Proteinuria Level (Heymann-Type Nephritis; Day 21, 3 mg/body i.p. once a day for 7 days): 8 mg/day and 13 mg/day and 7 mg/day | Acute Toxicity LD50 (mice): Above 300 mg/kg | anticomplementary activity (in words) (complement): potent anticomplementary activity | Anticomplementary Activity (50% hemolysis inhibitory activity value) (complement): 5 µg/mL

CC1(C)[C@@H](O[C@H]2O[C@H](C(=O)O)[C@@H](O)[C@H](O)[C@H]2O[C@@H]2O[C@H](C(=O)O)[C@@H](O)[C@H](O)[C@H]2O)CC[C@]2(C)[C@H]3C(=O)C=C4[C@@H]5C[C@@](C)(C(=O)O)CC[C@]5(C)CC[C@@]4(C)[C@]3(C)CC[C@@H]12 [Compound B, Glycyrrhizin]
inhibitory activity against complements (complements): inhibitory activity | inhibitory activity against plasmin (plasmin): inhibitory activity | inhibitory activity against Kallikrein (Kallikrein): inhibitory activity | inhibitory activity against thrombin (thrombin): inhibitory activity | LD50 [2]: > 300 mg/kg | inhibitory activity against urokinase (urokinase): inhibitory activity | Anticomplementary Activity (50% hemolysis inhibitory activity value) (complement): 500-1,000 γ/ml

Cc1ccc(C(=O)Nc2ccc(S(=O)(=O)O)c3cc(S(=O)(=O)O)cc(S(=O)(=O)O)c23)cc1NC(=O)c1cccc(NC(=O)Nc2cccc(C(=O)Nc3cc(C(=O)Nc4ccc(S(=O)(=O)O)c5cc(S(=O)(=O)O)cc(S(=O)(=O)O)c45)ccc3C)c2)c1 [Suramin Sodium]
use in the treatment of hereditary angioneurotic edema [3]: used with success

NCCCCCC(=O)O [epsilon-aminocaproic acid]
use in the treatment of hereditary angioneurotic edema [3]: used with success

NC[C@H]1CC[C@H](C(=O)O)CC1 [tranexamic acid]
use in the treatment of hereditary angioneurotic edema [3]: used with success
